One series concerns HL-60. The series is described as follows: Upregulation of PUMA protein expression in human HL-60 cells overexpressing p53-V272M mutant pretreated for 1 hr followed by culturing in fresh medium for 16 hrs by Western blot analysis. It counts as functional, cell-based.
In series [1] the target is T1, PML-RARalpha (Homo sapiens) (UniProt P10276+P29590). Put plainly: Induction of PML/RARalpha (unknown origin) degradation overexpressed in HEK293T cells assessed as residual protein level at 2 to 6 uM incubated for 1 hrs followed by replacement with fresh culture medium and measured after 16 hrs by Western blot analysis. It counts as cell-based. The note with it: dose 2-6 µM. On the technique in general: In western blotting, separated proteins are transferred to a membrane and probed.

Series [2] concerns Cellular tumor antigen p53 (Homo sapiens), P04637 [V272M]. The series is described as follows: Restoration of p53-V272M mutant transcriptional activity on PUMA promoter in human NCI-H1299 cells at 10 uM pretreated with -auranofin for 10 mins followed by compound addition for 10 mins and further incubation in fresh medium for 24 hrs by firefly/renilla based luciferase reporter assay. Type of series: cell-based. Background: In a reporter assay the amount or activity of a reporter protein is the signal.

In series [3] the test system is U-937. Put plainly: Induction of extrinsic apoptosis in human U-937 cells overexpressing p53-V272M mutant assessed as upregulation of DR5 gene expression by RT-qPCR analysis. It counts as functional, cell-based.
For a further series, the system named is NB-4. The series is described as follows: Induction of apoptosis in human NB4 cells assessed as early apoptotic cells at 3 uM preincubated for 1 hrs followed by replacement with fresh culture medium and measured after 24 hrs by Annexin V-FITC/7AAD staining based flow cytometry assay (reference value: 2.15%). Type of series: functional.
Series [4] concerns the target T1, PML-RARalpha (Homo sapiens). The series is described as follows: Induction of PML/RARalpha degradation in human NB4 cells assessed as residual protein level at 1 uM incubated for 1 hrs followed by replacement with fresh culture medium and measured after 16 hrs by Western blot analysis (reference value: 1). Type of series: cell-based.
Series [5] shares this target. The series is described as follows: Induction of PML/RARalpha degradation in human NB4 cells assessed as residual protein level at 0.3 uM incubated for 1 hrs followed by replacement with fresh culture medium and measured after 16 hrs by Western blot analysis (reference value: 1). Type of series: cell-based.
Series [6] relates to U-937. Put plainly: Upregulation of p21 mRNA expression in human U-937 cells overexpressing p53-V272M mutant pretreated for 1 hr followed by culturing in fresh medium for 4 hrs by RT-qPCR analysis. Type of series: functional, cell-based. (In general: Quantitative PCR measures a nucleic acid by following its amplification.)
Series [7] has as its system NCI-H1299. Put plainly: Upregulation of PUMA protein expression in human NCI-H1299 cells overexpressing p53-V272M mutant pretreated for 1 hr followed by culturing in fresh medium for 16 hrs by Western blot analysis. Type of series: functional, cell-based.
The test system of series [8] is NCI-H1299. The series is described as follows: Upregulation of MDM2 mRNA expression in human NCI-H1299 cells overexpressing p53-V272M mutant at 2 uM pretreated for 1 hr followed by culturing in fresh medium for 8 hrs by RT-qPCR analysis. It counts as functional, cell-based.
Series [9] is described as follows: Clearance in ICR mouse at 10 mg/kg, iv measured upto 24 hrs by ICP-MS analysis relative to hepatic blood flow. The note with it: in vivo. It counts as ADME, organism-based.
Series [10] is described as follows: Drug uptake in human MDA-MB-231 cells assessed as fold increase in arsenic accumulation at 10 uM incubated for 10 mins by ICP-MS analysis. It counts as ADME, cell-based. The conditions noted are these: mda-mb-231, 10 min.
In series [11] the test system is U-937. Put plainly: Antitumor activity against GFP-tagged human U-937 cells harboring p53 V272M mutant xenografted in M-NSG mouse assessed as appearance of smaller and lighter spleen at 25 mg/kg, ip administered for 9 days starting from 7 days post inoculation and measured on day 2 and 6. Type of series: functional, organism-based. The conditions noted are these: time 9.0 day.

Series [12] relates to U-937. Put plainly: Upregulation of p21 protein expression in human U-937 cells overexpressing p53-V272M mutant at 0.1 to 0.5 uM pretreated for 1 hr followed by culturing in fresh medium for 16 hrs by Western blot analysis. It counts as functional, cell-based. The conditions noted are these: dose 0.1-0.5 µM.
For series [13], the system named is U-937. The series is described as follows: Antitumor activity against human U-937 cells harboring p53-V272M mutant xenografted in NSG mouse assessed as delay in tumor progression at 10 mg/kg, iv administered for 9 days by bioluminescence imaging based luciferase analysis. It counts as functional, organism-based. The conditions noted are these: time 9.0 day.

Structures are written as SMILES. The source made the active and inactive calls. No cut-off for these calls is given here.

T1 sequence (P10276 whole entry, looked up): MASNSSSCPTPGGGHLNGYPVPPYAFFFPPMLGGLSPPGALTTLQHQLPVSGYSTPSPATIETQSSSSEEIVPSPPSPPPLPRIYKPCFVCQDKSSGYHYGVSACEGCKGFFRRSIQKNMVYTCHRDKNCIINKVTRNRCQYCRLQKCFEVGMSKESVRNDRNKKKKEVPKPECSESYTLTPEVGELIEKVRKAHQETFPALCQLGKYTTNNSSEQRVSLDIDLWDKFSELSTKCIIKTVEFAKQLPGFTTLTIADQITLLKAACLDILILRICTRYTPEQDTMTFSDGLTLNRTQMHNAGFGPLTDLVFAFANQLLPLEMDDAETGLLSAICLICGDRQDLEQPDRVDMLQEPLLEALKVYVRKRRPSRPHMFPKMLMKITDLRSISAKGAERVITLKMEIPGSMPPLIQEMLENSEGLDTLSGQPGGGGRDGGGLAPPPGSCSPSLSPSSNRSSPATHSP
T1 sequence (P29590 whole entry, looked up): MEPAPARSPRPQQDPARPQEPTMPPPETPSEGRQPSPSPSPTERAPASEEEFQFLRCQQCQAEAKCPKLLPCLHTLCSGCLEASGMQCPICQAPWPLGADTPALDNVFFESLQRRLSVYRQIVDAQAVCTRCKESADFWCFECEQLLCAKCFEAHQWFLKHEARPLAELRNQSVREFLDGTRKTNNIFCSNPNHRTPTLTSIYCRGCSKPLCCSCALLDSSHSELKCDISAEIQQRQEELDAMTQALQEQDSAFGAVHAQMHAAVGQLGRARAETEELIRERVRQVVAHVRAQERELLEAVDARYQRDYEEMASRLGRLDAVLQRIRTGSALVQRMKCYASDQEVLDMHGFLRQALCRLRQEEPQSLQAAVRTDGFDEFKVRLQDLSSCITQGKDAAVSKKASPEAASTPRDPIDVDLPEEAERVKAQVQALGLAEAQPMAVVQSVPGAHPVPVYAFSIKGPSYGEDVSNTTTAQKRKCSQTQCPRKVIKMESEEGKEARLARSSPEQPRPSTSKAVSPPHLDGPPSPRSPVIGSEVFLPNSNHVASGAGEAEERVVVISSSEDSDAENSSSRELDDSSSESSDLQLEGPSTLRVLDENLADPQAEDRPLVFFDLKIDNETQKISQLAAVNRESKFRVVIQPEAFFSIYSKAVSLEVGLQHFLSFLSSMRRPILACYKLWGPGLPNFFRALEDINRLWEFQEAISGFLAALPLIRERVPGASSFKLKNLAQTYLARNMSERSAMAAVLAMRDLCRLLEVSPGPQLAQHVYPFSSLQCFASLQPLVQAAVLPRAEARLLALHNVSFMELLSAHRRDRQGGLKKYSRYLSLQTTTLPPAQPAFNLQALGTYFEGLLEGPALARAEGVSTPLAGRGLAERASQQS

Consider `CC(=O)OC[C@H]1O[C@@H](S[As]2SCCS2)[C@H](OC(C)=O)[C@@H](OC(C)=O)[C@@H]1OC(C)=O`, for which the outcome (in the series with HL-60; in series [1]; in the series with U-937 [3]; with U-937 [6]; with NCI-H1299 [7]; in the series on NCI-H1299 [8]) was Active. Further, the outcome in the series with U-937 [11], in the series with U-937 [12] and in the series on U-937 [13] was Active. Further, in [2], the result was inactive. Further, the Activity with NB-4 was determined as 4.21%; in series [4], 0.26; in series [5], 0.42. In addition, in series [9], the CLH worked out at 13.7%. Further, the “fold change (FC)” value in series [10] came to 19.
